Data on 14 compounds can be found in patent publication US5698546A, “Cyclic polyamines” (Johnson Matthey Public Limted Company, priority 1994, dated 1997).

Structures can show the parent of a compound that is named as a salt. Where two headings read alike, the source gives them in different places. Bounds are passed on as bounds.

One series deals with HIV-1 (HTLV-IIIB). Description: microbe, parasite or virus in culture. Format: cell-based.
The subject of another series is HIV-2 (LAV-2 ROD). The series can be described thus: MT-4 cells challenged with HIV-2, viability by MTT method (antiviral activity). Format: cell-based, Human Immunodeficiency Virus. Particulars: for IC50: Human immunodeficiency virus 2, MT4, 120 h. On the technique in general: Formazan colour is commonly taken as a measure of viable cells.
Series [1] in a line: cytotoxicity in MT-4 cells, MTT method. Particulars: human.
A short description of series [2]: octanol/buffer partition coefficient. It is filed as physicochemical. As to conditions: for logD: octanol/buffer. From the text:
The compounds were additionally studied to determine their partition coefficients as between octanol and water, in standard tests at various pH values. A partition coefficient greater than unity at pH 7-9 is generally considered to be a good indication that the compound will be absorbed through the upper gastrointestinal tract when dosed orally.

A further series deals with cells. Particulars: in words; cited from earlier work.
The conditions of series [3]: literature (Barefield et al); cited from earlier work.
The next series in a line: solubility in water. It is filed as physicochemical. As to conditions: dimer believed to be the meso 2R,2'S isomer, characterised by the applicant.
The mark [4] stands for this setting: Human immunodeficiency virus 1, MT4, 120 h, HIV-1 (IIIB), MT-4 cells, 5 days at 37° C., read-out: IC50.
Setting [5] is: HIV-2 (ROD), MT-4 cells, 5 days at 37° C., read-out: IC50.
The mark [6] stands for this setting: CC50, HIV-1 (IIIB) part of Table 1, 5 days at 37° C.
[7] abbreviates: CC50, HIV-2 (ROD) part of Table 1, 5 days at 37° C.
Setting [8] is: Human immunodeficiency virus 1, IIIB, MT4, 120 h.

What is called IC50 is the midpoint of a concentration-inhibition curve. What is called CC50 is the concentration that lowers cell viability or growth by half. Lower therefore signals greater toxicity to the cells. Regarding `c1cc2nc(c1)CCNCCCN(Cc1ccc(CN3CCCNCCc4cccc(n4)CCNCCC3)cc1)CCCNCC2` [Compound F, 8,8'-[1,4-Phenylenebis(methylene)]bis-4,8,12,19-tetraazabicyclo[15.3.1]nonadeca-1(19),15,17-triene octahydrobromide heptahydrate], the “SI (Selectivity Index, ratio of CC50 to IC50)” value with HIV-1 (HTLV-IIIB) (HIV-1 (IIIB), MT-4 cells) was found to be 336; in the series on HIV-2 (LAV-2 ROD) (HIV-2 (ROD), MT-4 cells), 102. Besides, the IC50 turned out to be 0.59 µg/mL with HIV-1 (HTLV-IIIB) (setting [4]) and 1.68 µg/mL in the series with HIV-2 (LAV-2 ROD) (setting [5]). Also, the CC50 at 120 h in series [1] (setting [6]) is 199 µg/mL; in series [1] (setting [7]) it was 171 µg/mL.
For orientation: logD means the decadic logarithm of the distribution of all forms, ionised or not, between an organic phase and buffer at a given pH. For the compound `c1cc2nc(c1)CNCCCN(Cc1ccc(CN3CCCNCc4cccc(n4)CNCCC3)cc1)CCCNC2` [Compound A, 7,7'-[1,4-Phenylenebis(methylene)]bis-3,7,11,17-tetraazabicyclo[13.3.1heptadeca-1(17),13,15-trienehexahydrobromide hexahydrate], the concentration for half-maximal inhibition (IC50) came to 0.719 µg/mL in the series on HIV-1 (HTLV-IIIB) (setting [8]) and 3.51 µg/mL in the series on HIV-2 (LAV-2 ROD). Also, the results for the pH-dependent lipophilicity (logD) in series [2] (pH 8) and in series [2] (pH 9) were -0.963 and 0.713, respectively. Also, the half-maximal cytotoxic concentration (CC50) at 120 h in series [1] (setting [6]) and in series [1] (setting [7]) was over 250 µg/mL throughout.
On to `Cc1cn([C@H]2C[C@H](N=[N+]=[N-])[C@@H](CO)O2)c(=O)[nH]c1=O` [AZT], for which the toxicity to cells result in the series on cells was “high toxicity to cells”.
Take `O=c1cc2[nH]c(c1)CNCCCN(Cc1ccc(CN3CCCNCc4cc(=O)cc([nH]4)CNCCC3)cc1)CCCNC2` [Compound D, 7,7'-[1,4-Phenylenebis(methylene)]bis-3,7,11,17-tetraazabicyclo-[13.3.1]-heptadeca-13,16-triene-15-one octahydrobromide]: the “SI (Selectivity Index, ratio of CC50 to IC50)” value in the series on HIV-1 (HTLV-IIIB) (HIV-1 (IIIB), MT-4 cells) is under 1; in the series with HIV-2 (LAV-2 ROD) (HIV-2 (ROD), MT-4 cells), under 1. Besides, the half-inhibitory concentration (IC50) with HIV-1 (HTLV-IIIB) (setting [8]) is over 218 µg/mL; in the series with HIV-2 (LAV-2 ROD), over 250 µg/mL. In addition, the logD is -1.6 in series [2] (pH 8) and -0.638 in series [2] (pH 9). Further, the CC50 at 120 h is over 218 µg/mL in series [1] (setting [6]) and over 250 µg/mL in series [1] (setting [7]).
On to `c1cc2nc(c1)CCNCCN(Cc1ccc(CN3CCNCCc4cccc(n4)CCNCC3)cc1)CCNCC2` [Compound E, 7,7'-[1,4-Phenylenebis(methylene)]bis-4,7,10,17-tetraazabicyclo-[13.3.1]heptadeca-1(17),13,15-triene octahydrobromide tetrahydrate], for which the values for the concentration for half-maximal inhibition (IC50) with HIV-1 (HTLV-IIIB) (setting [8]) and in the series with HIV-2 (LAV-2 ROD) were 0.0014 µg/mL and 0.001 µg/mL, respectively. In addition, the log distribution coefficient (logD) is -2.4 in series [2] (pH 7), -1.44 in series [2] (pH 8) and 0.479 in series [2] (pH 9). Moreover, the cytotoxic concentration (CC50) at 120 h in series [1] (setting [6]) and in series [1] (setting [7]) was over 250 µg/mL throughout.
With `COc1cc2nc(c1)CNCCCN(Cc1ccc(CN3CCCNCc4cc(OC)cc(n4)CNCCC3)cc1)CCCNC2` [Compound C, 7,7'-[1,4-Phenylenebis(methylene)]bis[15-methoxy-3,7,11,17-tetraazabicyclo-[13.3.1]heptadeca-1(17),13,15-triene] hexahydrobromide dihydrate], in the series with HIV-1 (HTLV-IIIB) (HIV-1 (IIIB), MT-4 cells), the “SI (Selectivity Index, ratio of CC50 to IC50)” value is 64. Further, the concentration for half-maximal inhibition (IC50) came to 3.57 µg/mL in the series with HIV-1 (HTLV-IIIB) (setting [8]) and 9.74 µg/mL in the series with HIV-2 (LAV-2 ROD). For the same compound, the logD is -0.959 in series [2] (pH 8) and -0.0605 in series [2] (pH 9). In addition, the CC50 at 120 h in series [1] (setting [6]) was 229 µg/mL; in series [1] (setting [7]), over 250 µg/mL.
With `c1cc(CN2CCCNCCNCCCNCC2)ccc1CN1CCCNCCNCCCNCC1` [Compound L, 1,1'-[1,4-phenylenebis(methylene)]bis-1,4,8,11-tetraazacyclotetra-decane octahydrobromide dihydrate, reference compound], the IC50 in the series with HIV-1 (HTLV-IIIB) (Human immunodeficiency virus 1, IIIB, MT4, 120 h, read-out: IC50) was found to be 0.0068 µg/mL; with HIV-2 (LAV-2 ROD) (setting [5]) it was 0.009 µg/mL. Further, the octanol/buffer partition coefficient in series [2] (pH 7) stood at 0.0016; in series [2] (pH 8), 0.005; in series [2] (pH 9), 0.16. The CC50 at 120 h in series [1] (setting [6]) and in series [1] (setting [7]) was over 250 µg/mL each time.
As for `Clc1cc2nc(c1)CNCCCN(Cc1ccc(CN3CCCNCc4cc(Cl)cc(n4)CNCCC3)cc1)CCCNC2` [Compound B, 7,7'-[1,4-Phenylenebis(methylene)]bis[15-chloro-3,7,11,17-tetraazabicyclo[13.3.1]heptadeca-1(17),13,15-triene]hexahydrobromide monoacetate], the “SI (Selectivity Index, ratio of CC50 to IC50)” value with HIV-1 (HTLV-IIIB) (HIV-1 (IIIB), MT-4 cells) is listed as 14. Also, the IC50 in the series on HIV-1 (HTLV-IIIB) (setting [8]) worked out at 0.89 µg/mL. In addition, the log distribution coefficient (logD) was -1 in series [2] (pH 7), 0.588 in series [2] (pH 8) and 1.46 in series [2] (pH 9). The same compound displayed a CC50 at 120 h in series [1] (setting [6]) of 12.5 µg/mL.
For the compound `C1CNCCNCCCNC(C2CNCCCNCCNCCCN2)CNC1` (stereo not drawn) [2,2'-dimer of cyclam], the solubility in water result in series [3] is reported as “insoluble in water”.
`c1cc(CN2CCNCc3cccc(n3)CNCC2)cc(CN2CCNCc3cccc(n3)CNCC2)c1` [Compound H, 6,6'-[1,3-Phenylenebis(methylene)]bis-3,6,9,15-tetraazabicyclo[11.3.1]pentadeca-1(15),11,13-triene hexahydrobromide trihydrate]: the “SI (Selectivity Index, ratio of CC50 to IC50)” value is 309 in the series with HIV-1 (HTLV-IIIB) (HIV-1 (IIIB), MT-4 cells) and 1.12 × 10^4 with HIV-2 (LAV-2 ROD) (HIV-2 (ROD), MT-4 cells). The IC50 with HIV-1 (HTLV-IIIB) (setting [4]) came to 0.104 µg/mL; in the series on HIV-2 (LAV-2 ROD) (setting [5]), 0.0027 µg/mL. For the same compound, the CC50 at 120 h amounted to 32.1 µg/mL in series [1] (setting [6]) and 30.7 µg/mL in series [1] (setting [7]).
`C1CNCCNCCCN[C@H]([C@H]2CNCCCNCCNCCCN2)CNC1` [meso 2R,2'S isomer]: the solubility in water entry in “solubility in water” was “soluble”.
With `c1cc2nc(c1)CNCCN(Cc1ccc(CN3CCNCc4cccc(n4)CNCCNCc4cccc(n4)C3)cc1)Cc1cccc(n1)CNCCNC2` [Compound K, 17,17'-[1,4-Phenylene-bis(methylene)]bis-3,6,14,17,23,24-hexaazatricyclo[17.3.1.1^8,12] tetracosa-1(23),8,10,12(24),19,21-hexnene octahydrobromide], the “SI (Selectivity Index, ratio of CC50 to IC50)” value is given as under 1 with HIV-1 (HTLV-IIIB) (HIV-1 (IIIB), MT-4 cells) and under 1 in the series with HIV-2 (LAV-2 ROD) (HIV-2 (ROD), MT-4 cells). In addition, the IC50 in the series on HIV-1 (HTLV-IIIB) (setting [8]) came to 4.59 µg/mL; in the series with HIV-2 (LAV-2 ROD), 5.89 µg/mL. The logD in series [2] (pH 8) is -1.15; in series [2] (pH 9), 0.25. Besides, the CC50 at 120 h amounted to 4.59 µg/mL in series [1] (setting [6]) and 5.89 µg/mL in series [1] (setting [7]).
`c1cc(CN2CCCNCCOCCNCCC2)ccc1CN1CCCNCCOCCNCCC1` [Compound J, 8,8'-[1,4-Phenylenebis(methylene)]bis-1-oxa-4,8,12-triazatetradecane-hexahydro bromide trihydrate]: the “SI (Selectivity Index, ratio of CC50 to IC50)” value with HIV-1 (HTLV-IIIB) (HIV-1 (IIIB), MT-4 cells) is over 54; with HIV-2 (LAV-2 ROD) (HIV-2 (ROD), MT-4 cells), over 116. Besides, the results for the half-inhibitory concentration (IC50) in the series with HIV-1 (HTLV-IIIB) (setting [8]) and in the series on HIV-2 (LAV-2 ROD) were 4.62 µg/mL and 2.15 µg/mL, respectively. In addition, the figures for the logD in series [2] (pH 7), in series [2] (pH 8) and in series [2] (pH 9) were -2.52, -1.92 and -0.131, respectively. The CC50 at 120 h in series [1] (setting [6]) and in series [1] (setting [7]) was over 250 µg/mL throughout.
On to `c1cc2nc(c1)CNCCN(Cc1ccc(CN3CCNCc4cccc(n4)CNCC3)cc1)CCNC2` [Compound G, 6,6'-[1,4'-Phenylenebis(methylene)]bis-3,6,9,15-tetraazabicyclo[11.3.1]pentadeca-1(15),11,13-triene hexahydromide trihydrate], for which the IC50 was found to be 0.62 µg/mL in the series with HIV-1 (HTLV-IIIB) (setting [4]) and 0.15 µg/mL in the series with HIV-2 (LAV-2 ROD) (setting [5]). Besides, in the series on HIV-2 (LAV-2 ROD) (HIV-2 (ROD), MT-4 cells), the “SI (Selectivity Index, ratio of CC50 to IC50)” value was 31. Further, the cytotoxic concentration (CC50) at 120 h in series [1] (setting [6]) is 6 µg/mL; in series [1] (setting [7]), 4.71 µg/mL.
